Source: patent US11129839B2, “Minocycline compounds for biodefense” (priority 2015, dated 2021)
Converted amounts (≈) assume the structure as drawn.

Tests used:
B. mallei = assay: microbe, parasite or virus in culture; format: cell-based
Y. pestis = assay: microbe, parasite or virus in culture; format: cell-based
Enterobacter aerogenes = details: cited from earlier work
Bacteroides fragilis = details: cited from earlier work
[1] = system: Staphylococcus aureus (MRSA); details: cited from earlier work
[2] = system: Staphylococcus aureus (MSSA); details: cited from earlier work
B. anthracis = assay: microbe, parasite or virus in culture; format: cell-based
Y. pestis (C092) = system: Y. pestis (C092); parameters: species or system BALB/c mice; details: mouse, in vivo
E. coli = assay: animal or person; format: in vivo, Mice; details: Escherichia coli, in Mus musculus, read-out: PD50/ED50
Burkholderia cepacia = details: cited from earlier work
E. faecalis = assay: animal or person; format: in vivo, Mice; details: Enterococcus faecalis, in Mus musculus, read-out: PD50/ED50
Streptococcus agalactiae = details: cited from earlier work
[3] = system: Coagulase-negative staphylococci; details: cited from earlier work
Salmonella spp. = details: cited from earlier work
Clostridium perfringens = details: cited from earlier work
Moraxella catarrhalis = details: cited from earlier work
Acinetobacter baumannii = details: cited from earlier work
Legionella pneumophila = assay: microbe, parasite or virus in culture; format: cell-based
Klebsiella pneumonia = details: cited from earlier work
Streptococcus pneumonia = details: cited from earlier work
[4] = system: Streptococcus pneumoniae (PRSP); details: cited from earlier work
Proteus mirabilis = details: cited from earlier work
[5] = system: Enterococcus faecalis (VSE); details: cited from earlier work
Shigella spp. = details: cited from earlier work
Streptococcus pyogenes = details: cited from earlier work
Clostridium difficile = details: cited from earlier work
Escherichia coli = details: cited from earlier work
Pseudomonas aeruginosa = details: cited from earlier work
[6] = system: Enterococcus faecium (VSE); details: cited from earlier work
F. tularensis = assay: microbe, parasite or virus in culture; format: cell-based
Chlamydia pneumonia = assay: microbe, parasite or virus in culture; format: cell-based
[7] = system: Enterococcus faecium (VRE); details: cited from earlier work
B. pseudomallei = assay: microbe, parasite or virus in culture; format: cell-based; details: Burkholderia pseudomallei
H. influenza = assay: animal or person; format: in vivo, Mice; details: Mus musculus, read-out: PD50/ED50
[8] = system: bacteria isolated from clinical specimens; format: cell-based
[9] = system: Enterococcus facecalis (VRE); details: cited from earlier work
B. anthracis AMES strain = system: B. anthracis AMES strain; parameters: species or system BALB/c mice; details: mouse, in vivo
Enterobacter cloacae = details: cited from earlier work
B. mallei (China 7) = system: B. mallei (China 7); parameters: species or system BALB/c mice; details: mouse, in vivo
Haemophilus influenza = details: cited from earlier work

`CC[C@H]1OC(=O)[C@H](C)[C@@H](O[C@H]2C[C@@](C)(OC)[C@@H](O)[C@H](C)O2)[C@H](C)[C@@H](O[C@@H]2O[C@H](C)C[C@H](N(C)C)[C@H]2O)[C@](C)(O)C[C@@H](C)CN(C)[C@H](C)[C@@H](O)[C@]1(C)O` [azithromycin, reference compound] showed an MIC (B. mallei; Burkholderia mallei) of 0.5 µg/mL (≈ 0.668 µM).

With `CN(C)c1cc(CNCC(C)(C)C)c(O)c2c1C[C@H]1C[C@H]3[C@H](N(C)C)C(O)=C(C(N)=O)C(=O)[C@@]3(O)C(O)=C1C2=O` [Compound A, 9-[(2,2-dimethyl-propylamino)-methyl]minocycline] the MIC range (Y. pestis) was 0.125 to 2 µg/mL, the “in vitro activity (in words)” value (Y. pestis) was “significant activity” and the MIC (Y. pestis; Yersinia pestis) was 1 µg/mL (≈ 1.8 µM). The MIC50 (Y. pestis; Yersinia pestis) was 1 µg/mL (≈ 1.8 µM), the MIC90 (Y. pestis; Yersinia pestis) was 1 µg/mL (≈ 1.8 µM) and the MIC50 (Enterobacter aerogenes) was 2/2 μg/mL. The MIC90 (Enterobacter aerogenes) was 4/4 μg/mL, the MIC50 (Bacteroides fragilis) was 1/8 μg/mL and the MIC90 (Bacteroides fragilis) was 4/16 μg/mL. The MIC50 [1] was 0.25/0.12 μg/mL, the MIC90 [1] was 0.25/2 μg/mL and the MIC50 [2] was 0.25/0.12 μg/mL. For the same molecule, the MIC90 [2] was 0.25/0.25 μg/mL, the MIC range (B. anthracis) was less than 0.03125 to 0.0625 µg/mL and the “in vitro activity (in words)” value (B. anthracis) was “highly active”. The MIC (B. anthracis; Bacillus anthracis) was less than 0.03 µg/mL, the MIC50 (B. anthracis; Bacillus anthracis) was 0.0312 µg/mL (≈ 0.0561 µM) and the MIC90 (B. anthracis; Bacillus anthracis) was 0.0625 µg/mL (≈ 0.112 µM). For the same molecule, the “percent survival (comparison in words, FIG. 1)” value (Y. pestis (C092); 40 mg/kg) was “more effective as doxycycline at 40 mg/kg and is at least as effective or ciprofloxacin at 15 mg/kg”, the PD50 (Y. pestis (C092); ip) was 23.5 (range of 20.1 to 27.0 mg/kg) and the ED50 (E. coli) was 4.3 mg/kg. For the same molecule, the MIC50 (Burkholderia cepacia) was 2/4 μg/mL, the MIC90 (Burkholderia cepacia) was 64/>32 μg/mL and the ED50 (E. faecalis) was 4.5 mg/kg. The MIC50 (Streptococcus agalactiae) was 0.25/8 μg/mL, the MIC90 (Streptococcus agalactiae) was 0.25/16^ μg/mL and the MIC50 [3] was 0.25/0.25 μg/mL. The MIC90 [3] was 1/2 μg/mL, the MIC50 (Salmonella spp.) was 2/4 μg/mL and the MIC90 (Salmonella spp.) was 8/32 μg/mL. The MIC50 (Clostridium perfringens) was 1/2 μg/mL, the MIC90 (Clostridium perfringens) was 4/8 μg/mL and the MIC50 (Moraxella catarrhalis) was 0.25/0.25 μg/mL. For the same molecule, the MIC90 (Moraxella catarrhalis) was 0.25/0.25 μg/mL, the MIC50 (Acinetobacter baumannii) was 0.25/0.25 μg/mL and the MIC90 (Acinetobacter baumannii) was 4/2 μg/mL. For the same molecule, the MIC50 (Legionella pneumophila) was 0.25 µg/mL (≈ 0.449 µM), the MIC90 (Legionella pneumophila) was 0.25 µg/mL (≈ 0.449 µM) and the MIC50 (Klebsiella pneumonia) was 2/2 μg/mL. The MIC90 (Klebsiella pneumonia) was 8/>32 μg/mL, the MIC50 (Streptococcus pneumonia) was 0.12/0.25 μg/mL and the MIC90 (Streptococcus pneumonia) was 0.12/8 μg/mL. The MIC50 [4] was 0.12/8 μg/mL, the MIC90 [4] was 0.12/8 μg/mL and the MIC50 (Proteus mirabilis) was 16/16 μg/mL. For the same molecule, the MIC90 (Proteus mirabilis) was 32/>32 μg/mL, the MIC50 [5] was 0.25/8 μg/mL and the MIC90 [5] was 0.5/8^ μg/mL. The MIC50 (Shigella spp.) was 1/1 μg/mL, the MIC90 (Shigella spp.) was 2/32 μg/mL and the MIC range (B. mallei) was less than 0.03125 to 0.5 µg/mL. The “in vitro activity (in words)” value (B. mallei) was “highly active”, the MIC (B. mallei; Burkholderia mallei) was 0.25 µg/mL (≈ 0.449 µM) and the MIC50 (B. mallei; Burkholderia mallei) was 0.125 µg/mL (≈ 0.225 µM). The MIC90 (B. mallei; Burkholderia mallei) was 0.25 µg/mL (≈ 0.449 µM), the MIC50 (Streptococcus pyogenes) was 0.12/25^ μg/mL and the MIC90 (Streptococcus pyogenes) was 0.12/0.25 μg/mL. For the same molecule, the MIC50 (Clostridium difficile) was 0.12/0.03 μg/mL, the MIC90 (Clostridium difficile) was 0.12/1 μg/mL and the MIC50 (Escherichia coli) was 2/8 μg/mL. The MIC90 (Escherichia coli) was 4/>32 μg/mL, the MIC50 (Pseudomonas aeruginosa) was 32/32 μg/mL and the MIC90 (Pseudomonas aeruginosa) was 64/32 μg/mL. The MIC50 [6] was 0.12/0.12 μg/mL, the MIC90 [6] was 0.12/16^ μg/mL and the MIC range (F. tularensis) was 0.5 to 2 µg/mL. For the same molecule, the “in vitro activity (in words)” value (F. tularensis) was “significant activity”, the MIC50 (F. tularensis; Francisella tularensis) was 1 µg/mL (≈ 1.8 µM) and the MIC90 (F. tularensis; Francisella tularensis) was 2 µg/mL (≈ 3.59 µM). The MIC50 (Chlamydia pneumonia) was 0.25 µg/mL (≈ 0.449 µM), the MIC90 (Chlamydia pneumonia) was 0.25 µg/mL (≈ 0.449 µM) and the MIC50 [7] was 0.12/8 μg/mL. For the same molecule, the MIC90 [7] was 0.12/8 μg/mL, the MIC50 (B. pseudomallei) was 64 µg/mL (≈ 115 µM) and the MIC90 (B. pseudomallei) was greater than 64 µg/mL. The ED50 (H. influenza) was 4.7 mg/kg, the “effect of serum or lung surfactant on in vitro activity” value [8] was “not affected by serum or lung surfactant” and the MIC50 [9] was 0.12/0.25 μg/mL. For the same molecule, the MIC90 [9] was 0.25/8 μg/mL, the “percent survival (comparison in words, FIG. 2)” value (B. anthracis AMES strain) was “as effective as doxycycline or ciprofloxacin” and the PD50 (B. anthracis AMES strain; ip) was 0.8 (range of 0.6 to 1.1 mg/kg). The MIC50 (Enterobacter cloacae) was 2/4 μg/mL, the MIC90 (Enterobacter cloacae) was 16/16 μg/mL and the “percent survival (in words, FIG. 3)” value (B. mallei (China 7)) was “as effective as doxycycline or azithromycin”. The MIC50 (Haemophilus influenza) was 0.5/0.5 μg/mL and the MIC90 (Haemophilus influenza) was 1/1 μg/mL.
